Source: paper PMC12456010, “Structural constraints prevent a bat norovirus from binding to histo-blood group antigen co-factors” (Journal of Virology, 2025)

Legend:
GII.27 P domain = target: T1, GII.27 P domain (Norovirus GII, UniProt A0A2H4Y8Z8); test: X-ray co-crystal structure, […] A; format: binding; conditions: co-crystallized with 30-60 molar excess; one molecule per dimer, site at dimer interface: N354, R355, D384 of one monomer, K444, G446, Y447 of the other
T1 construct: protruding (P) domain of the capsid protein, dimer

GX P domain (NPIH26) = target: T2, GX P domain (NPIH26) (Bat norovirus, UniProt A0A2S1TZT6); test: X-ray co-crystal structure, […] A; format: binding; conditions: co-crystallized with 30-60 molar excess; two fucose molecules per P domain dimer; site E332, H334, E349, T433 of one monomer; pH 6.5
T2 construct: gene ORF2; protruding (P) domain of the capsid protein, dimer

CC(=O)N[C@H]1[C@@H](O[C@H]2[C@@H](O)[C@@H](CO)OC(O)[C@@H]2O[C@@H]2O[C@@H](C)[C@@H](O)[C@@H](O)[C@@H]2O)O[C@H](CO)[C@H](O)[C@@H]1O (stereo partly drawn) [A-trisaccharide, α-L-fucose-(1-2)-α-D-galactose-(3-1)-2-N-acetyl-α-D-galactosamine]
X-ray co-crystal structure, 1.76 A (GII.27 P domain): a single A-trisaccharide molecule bound to the P domain dimer

C[C@@H]1OC(O)[C@@H](O)[C@H](O)[C@@H]1O (some centres unmarked) [FUC, fucose]
X-ray co-crystal structure, 1.55 A (GX P domain (NPIH26)): The GX P domain held the fucose molecules with six direct hydrogen bonds
